The record followed here is patent US9096543B2, “Nuclear transport modulators and uses thereof” (Karyopharm Therapeutics Inc., priority 2012, dated 2015).

Assay [1] deals with collagen-induced arthritis. The experiment in a line: Collagen-Induced Arthritis (CIA) Study No. 2. The assay is classed as in vivo, Lewis rats. The procedure:
To further investigate the effect of the compounds described herein on inflammation biomarkers, a second CIA model was initiated. In this model, the groups were designated as group A (naïve), group B (model; vehicle-treated), group C (Compound 2 at 5 mg/kg QoD). The rats in groups B and C were immunized intradermally with bovine Type II collagen in IFA on day 0, and a booster injection was given on day 7. Compound 2 was orally administered to rats with CIA after the onset of arthritis (Day 11). CIA development was evaluated via macroscopic scoring and measurements of paw swelling. This was assessed every day for the first 5 days after sensitization (day 7), and then twice per week (Monday and Thursday) until Day 28 using the clinical scoring system described in Table 7 above. In addition, ELISAs for CD45, CRP, CCL2/MCP-1, RANKL, TNF-α, IL1-β, IL-6, IL-8, IL-15, IL-17, and measurements for cathepsin K and elastase were performed 4 days (Day 15 of the study) and 10 days (Day 21 of the study—peak for the disease) after compound treatment and at the very end of the study (Day 28) on all group animals. Additionally, on the last day of the study (Day 28), a few representative animals from each group were subjected to three-dimensional micro-tomodensitometry of calcaneus, and bone erosion was quantified.

In assay [2] the test system is COX-2. The assay can be described thus: COX-2 protein expression in HeLa cells (immunoblot). The assay is classed as cell-based. As to conditions: 1 μM Compound 1 + 20 ng/ml TNFα, 24 hours. The method, then:
HeLa cells were plated in a 6-well culture dish (5×10^5 cells/well) with EMEM medium (Lonza) supplemented with 10% heat-inactivated fetal bovine serum (Invitrogen). Two of the wells of the plate were pre-treated with 1 μM of Compound 1 for 30 minutes, at which time one of the wells was exposed to 20 ng/ml TNFα (Preprotech) for 24 hours. The other wells were treated with either 20 ng/ml TNFα or nothing for 24 hours. Following the treatment, whole-cell lysates were generated from the cells by lysis with RIPA buffer supplemented with protease and phosphatase inhibitors (Roche). Immunoblot detection of COX-2 protein was performed using an anti-COX-2 antibody (Cayman). Signal intensity for the COX-2 protein was normalized to that of beta-actin (Santa Cruz) for each sample and plotted graphically as arbitrary intensity units.
(A western blot detects proteins with antibodies after separation by electrophoresis.)

The test system of assay [3] is BCCI injury to the medial frontal cortex. The experiment in a line: Morris Water Maze after bilateral controlled cortical impact (BCCI) injury in rats. In kind it is in vivo, Sprague Dawley rats. The procedure:
Bilateral controlled cortical impact (BCCI) injury to the medial frontal cortex (MFC) of male Sprague Dawley rats was induced by a cortical contusion device. After CCI any cortical surface hemorrhaging was controlled, and the fascia and scalp were sutured. Sham-operated rats were anesthetized, mounted in the stereotaxic apparatus, and a craniotomy was performed.
Compound 10.2, 0.4, and 0.6 mg/mL was suspended in vehicle (0.6% w/v Pluronic® F-68 and 0.6% w/v PVP K-29/32 in water) and administered p.o at a concentration of 10 mL/kg, 16 h before injury and 2 h after injury, and administrations were continued for 4 days. Control rats received equivalent injections of the vehicle for Compound 1, at the same time points.
The Morris Water Maze (MWM) test is a spatial navigation task that measures learning and memory in rodents using visual cues. Subjects learn over the course of days to find a hidden platform. A MWM test was conducted two weeks after injury. Male Sprague Dawley rats were allowed to swim in the pool until they reached the platform located in the southwest quadrant of a tank, or until 90 seconds had elapsed. Behavior was tracked by a video camera hanging from above the pool and recorded and analyzed using video track software (ANY-maze).

Assay [4] concerns CCI brain injury. The experiment in a line: Brain injury assessment after CCI (visual inspection, NeuN cell density, immunofluorescence). In kind it is in vivo, rats. As to conditions: for cell-to-gray matter (CG) area coefficient, compared to sham: NeuN labeling. The method, then:
Quantitative measures of cell density were collected from anti-NeuN immunolabeled subsections from approximately 2-3 mm anterior to bregma. Regions of interest (ROIs) were drawn (blind to experimental condition) around Layers IV-VI in the cortical region adjacent to the injury site in CCI-treated animals or in the equivalent zone (dorsal cortex) in sham animals. An ROI of similar area was also evaluated in a ventral cortical region of the same section. Cell identification was performed using the cell counting module of Keyence BZ-II Analyzer software. […] The CCI-induced reduction in CG coefficient was mitigated by treatment with Compound 1 in the ventral cortex (−3% compared to sham; p=0.09). Although the effect of Compound 1 versus vehicle treatment in the ventral cortex is not statistically significant, it is anticipated that this effect would breach statistical significance in a larger study. No effect of Compound 1 was detected in the dorsal cortical region (−32% compared to sham) immediately adjacent to the injury site. The difference in the observed effect of Compound 1 on the ventral region versus the dorsal region may be a threshold effect related to the degree of injury, which was inversely related to the distance from the injury site. Thus, the damage to the dorsal cortical region could be too severe to be rescued by Compound 1 under these conditions.
Immunofluorescence was performed to evaluate the impact of TBI on several pathways of immune response, and to determine if Compound 1 might be mediating its neuroprotective effects via one or more of those pathways. Semi-quantitative measures of secondary injury responses were examined using immunofluorescent labeling for anti-Rat IgG (an indicator of blood-brain barrier (BBB) permeability), and TNFα (an indicator of neural inflammation). All markers were imaged at 20× magnification in the areas of the cortex surrounding the injury site in adjacent subsections within 300 μm to those used for the NeuN labeling assessments. For each label, a target ROI was outlined within Layers IV-VI adjacent to the injury site (or an equivalent region of dorsal cortex for sham animals), and a reference ROI was collected from the same laminae in ventral cortex. Normalized fluorescence intensity was assessed in each of the two ROIs. For all labels, the ventral cortex reference site was determined not to be different between groups (p>0.5); therefore, the percent target to reference value (IF) was determined.

“Also recorded” adds a separate entry of the source.

Turning to `O=C(/C=C\n1cnc(-c2cc(C(F)(F)F)cc(C(F)(F)F)c2)n1)NNC(=O)CN1CCOCC1` [Compound 2, (Z)-3-(3-(3,5-bis(trifluoromethyl)phenyl)-1H-1,2,4-triazol-1-yl)-N′-(2-morpholinoacetyl)acrylohydrazide], in assay [1] (5 mg/kg QoD orally from Day 11), the “joint swelling and clinical scores compared to vehicle-treated rats” value is given as “significantly reduced joint swelling”. For the same molecule, in assay [1] (5 mg/kg QoD, Day 28), the “bone erosion in the rear paws (micro CT, BMD)” value is “significantly reduced bone erosion in the rear paws; also recorded: comparable to that of naïve animals”.
In the case of `CC(C)(C)C(=O)NNC(=O)/C=C\n1cnc(-c2cc(C(F)(F)F)cc(C(F)(F)F)c2)n1` [Compound 1, (Z)-3-(3-(3,5-bis(trifluoromethyl)phenyl)-1H-1,2,4-triazol-1-yl)-N′-pivaloylacrylohydrazide], the COX-2 protein expression result in assay [2] is listed as “decreased the amount of COX-2 protein in the presence of TNFα; also recorded: does reduce the amount of TNFα induced expression of COX-2 protein; also recorded: inhibits TNFα-induced COX-2 protein expression”. Also, the “days after injury with significant effect on latency” value in assay [3] (4 mg/kg p.o.) worked out at 18. Moreover, the “latency to find the hidden platform (MWM acquisition) compared to vehicle-treated BCCI-injured rats” value in assay [3] (2, 4 and 6 mg/kg p.o.) was “dose dependent decrease in the latency to find the hidden platform”. Further, in assay [4] (CCI + Compound 1 6 mg/kg), the “qualitative visual inspection of whole brains (damage to dorsal-medial cortical tissue)” value is “damage ranging from moderate to minimal”. Besides, the “cell-to-gray matter (CG) area coefficient, compared to sham” value in assay [4] (dorsal cortical region adjacent to injury site, CCI control −45%) is on record as −32%; in assay [4] (ventral cortex, p=0.09 vs vehicle, CCI control −30%), −3%. For the same molecule, the “secondary injury responses (TNFα immunopositive cells, anti-Rat IgG immunofluorescence)” value in assay [4] (tissue surrounding the injury site) is given as “largely absent; also recorded: reduces secondary injury responses”.
